Reference: PMC8173106, “Modulating Enzyme Function via Dynamic Allostery within Biliverdin Reductase B” (Frontiers in Molecular Biosciences, 2021)

Biological target: T1, human BLVRB (biliverdin reductase B) (Homo sapiens, UniProt P30043)
T1 construct: full length, 206 residues; codon-optimised, pET21b (T164S in pJ401k); N-terminal 6xHis tag removed with thrombin
T1 sequence (P30043 1-206): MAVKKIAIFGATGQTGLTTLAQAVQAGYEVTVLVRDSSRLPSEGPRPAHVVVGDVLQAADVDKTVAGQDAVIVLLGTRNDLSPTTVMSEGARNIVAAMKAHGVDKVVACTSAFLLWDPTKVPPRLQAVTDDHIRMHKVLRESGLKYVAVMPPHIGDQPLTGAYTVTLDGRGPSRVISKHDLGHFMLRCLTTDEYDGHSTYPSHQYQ
Experiment: isothermal titration calorimetry
Type: binding
Settings: 50 mM bis-tris, pH 6.5, 50 mM NaCl, 20 C; apo enzyme

With NC(=O)c1ccc[n+]([C@@H]2O[C@H](COP(=O)(O)OP(=O)(O)OC[C@H]3O[C@@H](n4cnc5c(N)ncnc54)[C@H](OP(=O)(O)O)[C@@H]3O)[C@@H](O)[C@H]2O)c1 [NADP^+] the KD was “screened for their dissociation constants (KD) to NADP^+ using ITC”.
